Assay results reported in paper PMC9120478 (Nature Communications, 2022).
Positions count from the first letter of the chain named. Values joined by “and” are separate entries in the source; they are usually repeats but may differ in a detail not shown here. Equal entries are not always repeated.

How the values were obtained:
TRPV3 [1] = settings: cited from earlier work
[2] = no reference given; cited from earlier work
[3] = test system: TRPV3 I674A gate residue mutant; settings: cited from earlier work
TRPV3 [4] = target: T1, TRPV3 (Mus musculus, UniProt Q8K424); assay: 2-APB concentration dependence of TRPV3 activation at two dyclonine concentrations (Schild plot); format: cell-based; settings: for TRPV3 activation by 2-APB in the presence of dyclonine (Schild plot source data): listed as Dyc
T1 construct: expressed in transfected cells; host or cells: HEK 293 S GnTI- cells (baculovirus transduction)
T1 sequence (Q8K424 1-791): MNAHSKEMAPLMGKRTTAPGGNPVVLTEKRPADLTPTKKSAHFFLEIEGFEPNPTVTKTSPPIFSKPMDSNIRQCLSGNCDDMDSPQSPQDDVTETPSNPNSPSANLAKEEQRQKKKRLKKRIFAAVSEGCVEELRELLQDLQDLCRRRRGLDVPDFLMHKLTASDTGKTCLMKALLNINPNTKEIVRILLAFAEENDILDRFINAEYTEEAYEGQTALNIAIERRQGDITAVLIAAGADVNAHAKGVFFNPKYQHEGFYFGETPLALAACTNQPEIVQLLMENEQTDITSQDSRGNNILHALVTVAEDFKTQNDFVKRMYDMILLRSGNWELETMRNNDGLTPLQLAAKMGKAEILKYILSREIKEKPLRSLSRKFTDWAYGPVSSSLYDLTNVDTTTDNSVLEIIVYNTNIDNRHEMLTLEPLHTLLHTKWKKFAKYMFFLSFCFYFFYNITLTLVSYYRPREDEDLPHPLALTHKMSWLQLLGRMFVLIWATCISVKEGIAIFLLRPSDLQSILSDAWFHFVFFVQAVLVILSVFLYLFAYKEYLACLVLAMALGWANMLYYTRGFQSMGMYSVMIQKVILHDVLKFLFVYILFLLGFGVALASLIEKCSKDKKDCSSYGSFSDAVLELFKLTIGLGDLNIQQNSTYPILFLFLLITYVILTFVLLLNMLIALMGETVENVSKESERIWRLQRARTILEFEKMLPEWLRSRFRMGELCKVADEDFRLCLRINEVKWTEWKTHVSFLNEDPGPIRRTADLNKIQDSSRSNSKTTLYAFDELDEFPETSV
Method: GFP-free C-terminally strep-tagged wild-type TRPV3, TRPV3-Y564A, TRPV3-Y594A, TRPV3-F633A, TRPV3-I663W, and TRPV3-F666A were expressed in HEK 293 S GnTI^− cells as previously described[41],[42],[53]. In short, 48 h after transduction, 1-ml aliquots of cell suspension were collected by centrifugation at 550 g for 5 min using an Eppendorf 5424 centrifuge. The cells were resuspended in the pre-warmed modified HEPES-buffered saline (HBS) containing 118 mM NaCl, 4.8 mM KCl, 1 mM MgCl2, 5 mM D-glucose, and 10 mM HEPES pH 7.4 and 5 μg/ml Fura-2 AM (Thermo Fisher Scientific) and incubated for 45 min at 37 °C. The Fura-2-loaded cells were then centrifuged for 5 min at 550 g, resuspended in the pre-warmed, modified HBS and incubated again for 30 min at 37 °C in the dark. The cells were subsequently pelleted and washed twice in the modified HBS. The washed cell pellets were kept on ice in the dark before taking an aliquot for fluorescence measurements. […] We used the lower CaCl2 concentration than before[42],[28] (2.5 mM) to minimize non-specific effects, which often appeared as a drift in the Fura-2 signal at high Ca^2+ concentration, presumably due to cell death as a result of calcium overload. Fluorescence measurements were conducted using a QuantaMaster 40 spectrofluorometer (Photon Technology International) at room temperature in a quartz cuvette under constant stirring. After 60 s since the beginning, the recording was paused and 2-APB was added. After the addition of 2-APB, the recording was continued for the additional 140 s. Changes in intracellular Ca^2+ were measured by taking the ratio of fluorescence emitted at 510 nm at the excitation wavelength of 340 nm and 380 nm. […] The data were processed using Origin 9.0 (OriginLab) software.

TRPV3-Y564A = target: T2, TRPV3-Y564A (Mus musculus, UniProt Q8K424, Y564A); assay: Fura-2 ratiometric Ca2+ uptake, inhibition of 2-APB-evoked response; format: cell-based
T2 construct: expressed in transfected cells; host or cells: HEK 293 S GnTI- cells (baculovirus transduction)
T2 sequence (Q8K424 1-791 Y564A): T1 sequence (Q8K424 1-791) with Y564A
Method: The Y564A mutation increases affinity to the TRPV3 agonist 2-APB[42] and decreases affinity to the competitive antagonist osthole.
GFP-free C-terminally strep-tagged wild-type TRPV3, TRPV3-Y564A, TRPV3-Y594A, TRPV3-F633A, TRPV3-I663W, and TRPV3-F666A were expressed in HEK 293 S GnTI^− cells as previously described[41],[42],[53]. In short, 48 h after transduction, 1-ml aliquots of cell suspension were collected by centrifugation at 550 g for 5 min using an Eppendorf 5424 centrifuge. The cells were resuspended in the pre-warmed modified HEPES-buffered saline (HBS) containing 118 mM NaCl, 4.8 mM KCl, 1 mM MgCl2, 5 mM D-glucose, and 10 mM HEPES pH 7.4 and 5 μg/ml Fura-2 AM (Thermo Fisher Scientific) and incubated for 45 min at 37 °C. The Fura-2-loaded cells were then centrifuged for 5 min at 550 g, resuspended in the pre-warmed, modified HBS and incubated again for 30 min at 37 °C in the dark. […] The washed cell pellets were kept on ice in the dark before taking an aliquot for fluorescence measurements. […] Fluorescence measurements were conducted using a QuantaMaster 40 spectrofluorometer (Photon Technology International) at room temperature in a quartz cuvette under constant stirring. […] Changes in intracellular Ca^2+ were measured by taking the ratio of fluorescence emitted at 510 nm at the excitation wavelength of 340 nm and 380 nm. […]

CCCCOc1ccc(C(=O)CCN2CCCCC2)cc1 [dyclonine, 1-(4-butoxyphenyl)-3-piperidin-1-ylpropan-1-one]
temperature-dependence of inhibition (TRPV3 [1]; TRPV3 activation by an infrared laser): lack of temperature-dependence | effect on TRPV3 currents evoked by heat (TRPV3 [1]): inhibits | voltage-dependence of TRPV3 inhibition (TRPV3 [1]): no voltage-dependence | pKa [2]: 8.36 | inhibitory potency at I674A mutant [3]: reduced inhibitory potency | TRPV3 activation by 2-APB in the presence of dyclonine (Schild plot source data) (TRPV3 [4]; 60 mM Dyc, 2-APB Conc 20, single experiments): 0.167 and 0.154 and 0.168 | TRPV3 activation by 2-APB in the presence of dyclonine (Schild plot source data) (TRPV3 [4]; 60 mM Dyc, 2-APB Conc 40, single experiments): 0.144 and 0.213 and 0.179 | TRPV3 activation by 2-APB in the presence of dyclonine (Schild plot source data) (TRPV3 [4]; 60 mM Dyc, 2-APB Conc 80, single experiments): 0.244 and 0.241 and 0.22 | TRPV3 activation by 2-APB in the presence of dyclonine (Schild plot source data) (TRPV3 [4]; 60 mM Dyc, 2-APB Conc 160, single experiments): 0.294 and 0.283 | TRPV3 activation by 2-APB in the presence of dyclonine (Schild plot source data) (TRPV3 [4]; 2-APB Conc 10, single experiments): 0.194 and 0.175 and 0.157 | TRPV3 activation by 2-APB in the presence of dyclonine (Schild plot source data) (TRPV3 [4]; 2-APB Conc 20, single experiments): 0.323 and 0.34 and 0.318 | TRPV3 activation by 2-APB in the presence of dyclonine (Schild plot source data) (TRPV3 [4]; 2-APB Conc 40, single experiments): 0.542 and 0.419 and 0.487 | TRPV3 activation by 2-APB in the presence of dyclonine (Schild plot source data) (TRPV3 [4]; 2-APB Conc 80, single experiments): 0.804 and 0.786 and 0.853 | competition between 2-APB and dyclonine (Schild plots) (TRPV3 [4]; 10 and 60 μM dyclonine): lack of obvious competition | IC50 (TRPV3-Y564A; 200 µM 2-APB, n = 4, negative control mutant): 31.5 ± 1 µM | nHill of inhibition curve, Y564A (TRPV3-Y564A; logistic fit, n = 4): 2.33 ± 0.11
